According to ChEMBL document CHEMBL1132803, “L-Selenohomocysteine: one-step synthesis from L-selenomethionine and kinetic analysis as substrate for methionine synthases” (Bioorg Med Chem Lett, 2000):

Legend:
[1] = Second order rate constant was determined; type: ADME
[2] = Specific activity of compound was determined; type: ADME

`NC(CCS)C(=O)O` (configuration not stated) [HOMOCYSTEINE] showed a Km [1] of 69 µM and a Specific activity [2] of 0.23 µM/min/mg.
